For this assay, the system named is HT-29 cells. The experiment in a line: Cell necrosis inhibitory activity under necroptosis-inducing conditions (TNF-α, Z-VAD-FMK, LCL161) in HT-29 cells, Cell Titer-Glo. Type of assay: cell-based. The following applies: Homo sapiens, 100 ng/mL TNF-α + 25 μM Z-VAD-FMK + Smac mimetic LCL161, 24 hours, cell viability. Here is the method:
To evaluate the cell necrosis inhibitory activity of the compound according to the present invention, an experiment was conducted as follows.
To evaluate the efficacy of inhibiting cell necrosis under TNF-α-mediated cell death-inducing conditions, a HT-29 cell line (Korean Cell Line Bank Accession No. #30038) was cultured in RPMI-1640 (HyClone #SH3027.01) medium containing 10% fetal bovine serum (FBS) and 1% penicillin/streptomycin to analyze cell viability. More specifically, for testing, the cell line was seeded in a 96-well flat bottom plate (Corning #3903) at a concentration of 10,000 cells/well and incubated at 37° C. under a 5% CO2 condition for 24 hours. Each well was treated with 100 ng/mL TNF-α, 25 μM pan-caspase inhibitor (Z-VAD-FMK, Selleckchem #S8102), and 10 µM Smac mimetic LCL161 (Selleckchem #S7009) and allowed to react for 10 minutes. The compounds of Examples were treated at 11 concentrations (the highest concentration being 0.1 μM or 1 μM) with a 3-fold concentration gradient, and as a control, dimethyl sulfoxide (DMSO) was treated at a concentration of 0.05% (v/v), which is the same as those when the compounds were treated. The treated cells were incubated for 24 hours. To confirm the degree of cell viability, 100 μL of Cell Titer-Glo (Promega #G7573) was added to the medium of the cultured cells and cultured for additional 10 minutes, and then luminescence was measured using a microplate reader. Based on the […] of control cells that were not treated with the compound, the degree of cell necrosis inhibitory activity was calculated according to the treatment concentration of each compound. Here, the concentration at which the cell necrosis inhibitory activity was 50% was determined as an EC50 (nM) value and calculated using Prism (ver. 8.4.3 #GraphPad) software.
On the technique in general: In ATP-based viability assays light output follows the ATP content of the culture.
By EC50 is commonly meant the concentration that produces a half-maximal response. Take `Cc1ccc(-c2ccc3ncc(C#CC(C)(C)O)n3c2)cc1NC(=O)N1OCC[C@H]1c1ccccc1` [Example 115, (S)-N-(5-(3-(3-hydroxy-3-methylbut-1-yn-1-yl)imidazo[1,2-a]pyridin-6-yl)-2-methylphenyl)-3-phenylisoxazolidine-2-carboxamide]: the EC50 worked out at 1.7 nM. For `Cc1ccc(-c2ccn3nc(N)nc3c2)cc1NC(=O)N1OCC[C@H]1c1cc(F)cc(F)c1` [Example 63, (S)-N-(5-(2-amino-[1,2,4]triazolo[1,5-a]pyridin-7-yl)-2-methylphenyl)-3-(3,5-difluorophenyl)isoxazolidine-2-carboxamide], the EC50 worked out at 0.2 nM. With `Cc1ccc(-c2ccn3nc(N)cc3c2)cc1NC(=O)N1OCC[C@H]1c1ccccc1` [Example 126, (S)-N-(5-(2-aminopyrazolo[1,5-a]pyridin-5-yl)-2-methylphenyl)-3-phenylisoxazolidine-2-carboxamide] the figure was 0.4 nM. With `COc1ncc(-c2ccc3c(N)ncnn23)cc1NC(=O)N1OCC[C@H]1c1ccccc1` [Example 99, (S)-N-(5-(4-aminopyrrolo[2,1-f][1,2,4]triazin-7-yl)-2-methoxypyridin-3-yl)-3-phenylisoxazolidine-2-carboxamide] the figure was 8.2 nM; with `Nc1nc2ccc(-c3ccc(Cl)c(NC(=O)N4OCC[C@H]4c4ccccc4)c3)cn2n1` [Example 97, (S)-N-(5-(2-amino-[1,2,4]triazolo[1,5-a]pyridin-6-yl)-2-chlorophenyl)-3-phenylisoxazolidine-2-carboxamide], 1.1 nM; with `C#Cc1cnc2ccc(-c3ccc(C)c(NC(=O)N4OCC[C@H]4c4ccccc4)c3)nn12` [Example 125, (S)-N-(5-(3-ethynylimidazo[1,2-b]pyridazin-6-yl)-2-methylphenyl)-3-phenylisoxazolidine-2-carboxamide], 1.4 nM.

As to `COc1ncc(-c2ccc3nc(NC(C)=O)sc3c2)cc1NC(=O)N1OCC[C@H]1c1ccccc1` [Example 26, (S)-N-(5-(2-acetamidobenzo[d]thiazol-6-yl)-2-methoxypyridin-3-yl)-3-phenylisoxazolidine-2-carboxamide], the EC50 was 0.7 nM. `Cc1ccc(-c2ccc3nc(N)nn3c2)cc1NC(=O)N1OCC[C@H]1c1ccc(C#N)cc1` [Example 91, (S)-N-(5-(2-amino-[1,2,4]triazolo[1,5-a]pyridin-6-yl)-2-methylphenyl)-3-(4-cyanophenyl)isoxazolidine-2-carboxamide]: the EC50 is 0.9 nM. With `CC(=O)Nc1nc2cc(-c3cnc(C)c(NC(=O)N4OCC[C@H]4c4ccccc4)c3)ccn2n1` [Example 49, (S)-N-(5-(2-acetamido-[1,2,4]triazolo[1,5-a]pyridin-7-yl)-2-methylpyridin-3-yl)-3-phenylisoxazolidine-2-carboxamide] the figure was 1.3 nM. In the case of `Cc1ccc(-c2ccn3nc(N)nc3c2)cc1NC(=O)N1OCC[C@H]1c1ccccc1` [Example 61, (S)-N-(5-(2-amino-[1,2,4]triazolo[1,5-a]pyridin-7-yl)-2-methylphenyl)-3-phenylisoxazolidine-2-carboxamide] it was 0.2 nM; in that of `COc1ncc(-c2ccn3nc(N)nc3c2)cc1NC(=O)N1OCC[C@H]1c1cc(F)cc(F)c1` [Example 54, (S)-N-(5-(2-amino-[1,2,4]triazolo[1,5-a]pyridin-7-yl)-2-methoxypyridin-3-yl)-3-(3,5-difluorophenyl)isoxazolidine-2-carboxamide], 0.4 nM; in that of `Cc1ccc(-c2ccc3nc(N)c(C(=O)[C@@H]4C[C@@H]4F)n3c2)cc1NC(=O)N1OCC[C@H]1c1ccccc1` [Example 135, (S)-N-(5-(2-amino-3-((1S,2S)-2-fluorocyclopropane-1-carbonyl)imidazo[1,2-a]pyridin-6-yl)-2-methylphenyl)-3-phenylisoxazolidine-2-carboxamide], 0.2 nM. With `COc1cccc([C@@H]2CCON2C(=O)Nc2cc(-c3ccc4nc(N)nn4c3)cnc2C)c1` [Example 45, (S)-N-(5-(2-amino-[1,2,4]triazolo[1,5-a]pyridin-6-yl)-2-methylpyridin-3-yl)-3-(3-methoxyphenyl)isoxazolidine-2-carboxamide] the figure was 4.6 nM; with `Cc1ncc(-c2ccc3nc(N)nn3c2)cc1NC(=O)N1OCC[C@H]1c1ccccc1` [Example 33, (S)-N-(5-(2-amino-[1,2,4]triazolo[1,5-a]pyridin-6-yl)-2-methylpyridin-3-yl)-3-phenylisoxazolidine-2-carboxamide], 1.2 nM; with `Cc1ncc(-c2ccc3nc(N)nn3c2)cc1NC(=O)N1OCC[C@H]1c1ccc(F)c(Cl)c1` [Example 42, (S)-N-(5-(2-amino-[1,2,4]triazolo[1,5-a]pyridin-6-yl)-2-methylpyridin-3-yl)-3-(3-chloro-4-fluorophenyl)isoxazolidine-2-carboxamide], 0.6 nM. As for `Cc1ncc(-c2ccc3nc(N)nn3c2)cc1NC(=O)N1OCC[C@H]1c1cccc(C#N)c1` [Example 46, (S)-N-(5-(2-amino-[1,2,4]triazolo[1,5-a]pyridin-6-yl)-2-methylpyridin-3-yl)-3-(3-cyanophenyl)isoxazolidine-2-carboxamide], the EC50 worked out at 19.4 nM. In the case of `Cc1ccc(-c2ccc3nnc(C)n3n2)cc1NC(=O)N1OCC[C@H]1c1ccccc1` [Example 107, (S)-N-(2-methyl-5-(3-methyl-[1,2,4]triazolo[4,3-b]pyridazin-6-yl)phenyl)-3-phenylisoxazolidine-2-carboxamide] it was 23.2 nM.

For the compound `Cc1ccc(-c2cc3c(cn2)ncn3C)cc1NC(=O)N1OCC[C@H]1c1ccccc1` [Example 133, (S)-N-(2-methyl-5-(1-methyl-1H-imidazo[4,5-c]pyridin-6-yl)phenyl)-3-phenylisoxazolidine-2-carboxamide], the EC50 worked out at 6.5 nM.

With `Cc1ccc(-c2ccn3nc(N)cc3c2)cc1NC(=O)N1CCOC[C@H]1c1ccccc1` [Example 136, (R)-N-(5-(2-aminopyrazolo[1,5-a]pyridin-5-yl)-2-methylphenyl)-3-phenylmorpholine-4-carboxamide], the 50% effective concentration (EC50) turned out to be 5.4 nM.

For the compound `Cc1ncc(-c2ccc3nc(NC(=O)C4CC4)cn3n2)cc1NC(=O)N1OCC[C@H]1c1ccccc1` [Example 10, (S)-N-(5-(2-(cyclopropanecarboxamido)imidazo[1,2-b]pyridazin-6-yl)-2-methylpyridin-3-yl)-3-phenylisoxazolidine-2-carboxamide], the EC50 amounted to 0.3 nM. In the case of `Cc1ccc(-c2ccc3nc(NC(=O)C4CC4)sc3n2)cc1NC(=O)N1OCC[C@H]1c1ccc(C#N)cc1` [Example 94, (S)-3-(4-cyanophenyl)-N-(5-(2-(cyclopropanecarboxamido)thiazolo[5,4-b]pyridin-5-yl)-2-methylphenyl)isoxazolidine-2-carboxamide] it was 0.3 nM. On to `CNC(=O)c1n[nH]c2cc(-c3cc(NC(=O)N4OCC[C@H]4c4ccccc4)cnc3C)ccc12` [Example 18, (S)-N-(6-methyl-5-(3-(methylcarbamoyl)-1H-indazol-6-yl)pyridin-3-y1)-3-phenylisoxazolidine-2-carboxamide], for which the EC50 amounted to 0.3 nM.

Regarding `Cc1ccc(-c2ccc3nc(NC(=O)C4CC4)sc3c2)cc1NC(=O)N1OCC[C@H]1c1ccc(C#N)cc1` [Example 93, (S)-3-(4-cyanophenyl)-N-(5-(2-(cyclopropanecarboxamido)benzo[d]thiazol-6-yl)-2-methylphenyl)isoxazolidine-2-carboxamide], the EC50 was 0.2 nM.

Consider `COc1ncc(-c2ccc3nc(N)nn3c2)cc1NC(=O)N1OCC[C@H]1c1cccc(F)c1` [Example 58, (S)-N-(5-(2-amino-[1,2,4]triazolo[1,5-a]pyridin-6-yl)-2-methoxypyridin-3-yl)-3-(3-fluorophenyl)isoxazolidine-2-carboxamide], for which the EC50 stood at 3.9 nM.

Take `CNC(=O)c1n[nH]c2cc(-c3cncc(NC(=O)N4OCC[C@H]4c4ccccc4)c3)ccc12` [Example 19, (S)-N-(5-(3-(methylcarbamoyl)-1H-indazol-6-yl)pyridin-3-yl)-3-phenylisoxazolidine-2-carboxamide]: the EC50 came out at 1 nM. In the case of `Cc1ncc(-c2ccc3c(N)ncnn23)cc1NC(=O)N1OCC[C@H]1c1ccccc1` [Example 120, (S)-N-(5-(4-aminopyrrolo[2,1-f][1,2,4]triazin-7-yl)-2-methylpyridin-3-yl)-3-phenylisoxazolidine-2-carboxamide] it was 1 nM; in that of `Cc1ccc(-c2ccn3nc(N)nc3c2)cc1NC(=O)N1OCC[C@H]1c1cccc(F)c1` [Example 62, (S)-N-(5-(2-amino-[1,2,4]triazolo[1,5-a]pyridin-7-yl)-2-methylphenyl)-3-(3-fluorophenyl)isoxazolidine-2-carboxamide], 0.2 nM; in that of `CC(=O)Nc1nc2ccc(-c3cnc(C)c(NC(=O)N4OCC[C@H]4c4ccccc4)c3)cn2n1` [Example 35, (S)-N-(5-(2-acetamido-[1,2,4]triazolo[1,5-a]pyridin-6-yl)-2-methylpyridin-3-yl)-3-phenylisoxazolidine-2-carboxamide], 3.2 nM.

The record behind these values is patent US20250019373A1, “ARYL OR HETEROARYL DERIVATIVE, AND PHARMACEUTICAL COMPOSITION COMPRISING SAME AS ACTIVE INGREDIENT FOR PREVENTION OR TREATMENT OF KINASE-RELATED DISEASES” (VORONOI INC., priority 2021, published 2025).
